Counter-ions that a name gives are not always drawn.

In the assay the test system is A2780 cells. Kind of assay: In vitro cell proliferation assay (WST-1 assay). The assay is classed as cell-based. The settings on record: Homo sapiens, total incubation time 72 h, WST-1 viable cell readout. As to the method:
A2780 cells were seeded in 96-well plates at 3×10^3 cells/well in 100 μL of culture medium, 8 wells were left empty for media only controls.
After 24 h the compound titrations were performed, in a separate dilution plate, by serially diluting the compounds of general formula (I) in culture medium. A 100 μL of each dilution was added to the plated cells, this was done in triplicate, and controls (e.g. DMSO and blanks) were included. The plates were incubated for 24 h at 37° C. in a CO2 incubator. The compound titrations were repeated in a separate dilution plate after 24 h. The media plus compound from the assay plates were then aspirated. A 100 μL of media was then added to all wells, followed by 100 μL of each compound dilution. The plates were incubated for a further 48 h at 37° C. in a CO2 incubator (total incubation time 72 h). The number of viable cells was then assessed using Cell Proliferation Reagent WST-1. 10 μL of WST-1 reagent added to each well and incubated for one to four hours at 37° C. in CO2 incubator. The absorbance was measured (450 nm/690 nm).
The activity of compounds of general formula (I) in reducing the number of viable cells was calculated as: % activity=[(S^C−B)/(S^O−B)]×100
S^C denotes signal measured in the presence of test compound, S^O denotes signal detected in the absence of compound, and B denotes background signal, measured in blank wells containing medium only. Analyse data using GraphPad Prism.
For orientation: Tetrazolium assays rely on reduction of a dye to a coloured formazan, in cell work by metabolically active cells.
On to `O=C(NCCCCCCS(=O)(=O)N(OCCN1CCOCC1)C1CCCCC1)Nc1ccncc1` [Compound 1008, N-Cyclohexyl-N-(2-morpholinethoxy)-6-(3-pyridin-4-ylureido)hexane-1-sulfonamide oxalate], for which the half-maximal inhibitory concentration (IC50) is 0.23 nM.

For `O=C(/C=C/c1cccnc1)NCCCCC1CCN(C(=O)c2ccccc2)CC1` [FK866, reference compound], the IC50 was found to be 0.1 nM.

`O=C(NCCCCCCS(=O)(=O)N(OCCN1CCOCC1)C1CCCC1)NCc1cccnc1` [Compound 1056, N-Cyclopentyl-N-(2-morpholinoethoxy)-6-(3-(pyridin-3-ylmethyl)ureido)hexane-1-sulfonamide] yielded an IC50 of 0.58 nM.

Regarding `O=C(NCCCCCCS(=O)(=O)N(CCCN1CCOCC1)C1CCCCC1)Nc1ccncc1` [Compound 1026, N-Cyclohexyl-N-(3-morpholinopropyl)-6-(3-pyridin-4-ylureido)hexane-1-sulfonamide], the IC50 worked out at 0.23 nM.

Turning to `O=S(=O)(CCCCCCNC(=S)Nc1ccncc1)N(OCCN1CCOCC1)C1CCCCC1` [Compound 1005, N-Cyclohexyl-N-(2-morpholinethoxy)-6-(3-pyridin-4-ylthioureido)hexane-1-sulfonamide oxalate], the IC50 was 0.34 nM.

`O=C(NCCCCCCS(=O)(=O)Nc1ccccc1)NCc1cccnc1` [Compound 1076, N-Phenyl-6-(3-(pyridin-3-ylmethyl)ureido)hexane-1-sulfonamide] yielded a concentration for half-maximal inhibition (IC50) of 5.4 nM.

The compound `O=C(NCCCCCS(=O)(=O)N(OCCN1CCOCC1)C1CCCCC1)NCc1cccnc1` [Compound 1042] had an IC50 of 6.64 nM.

The compound `O=S(=O)(CCCCCCNC(=S)Nc1ccncc1)N(CCF)OCC1CCCCC1` [Compound 1087, N-(cyclohexylmethoxy)-N-(2-fluoroethyl)-6-(3-pyridin-4-ylthioureido)hexane-1-sulfonamide] came in with an IC50 of 1.36 nM.

The compound `O=C(NCCCCCCCS(=O)(=O)N(OCCN1CCOCC1)C1CCCCC1)NCc1cccnc1` [Compound 1043] had an IC50 of 0.37 nM.

The compound `O=C(NCCCCCCS(=O)(=O)N(OCCN1CCOCC1)C1CCCCCC1)NCc1cccnc1` [Compound 1058, N-Cycloheptyl-N-(2-morpholinoethoxy)-6-(3-(pyridin-3-ylmethyl)ureido)hexane-1-sulfonamide] gave a half-inhibitory concentration (IC50) of 0.63 nM.

`O=C(NCCCCCCS(=O)(=O)N(CCCN1CCOCC1)C1CCCC1)Nc1ccncc1` [Compound 1066, N-Cyclopentyl-N-(3-morpholinopropyl)-6-(3-pyridin-4-ylureido)hexane-1-sulfonamide]: the IC50 was found to be 0.27 nM.

As to `O=C(NCCCCCCS(=O)(=O)N(OCCN1CCOCC1)C1CCCC1)Nc1ccncc1` [Compound 1090], the half-maximal inhibitory concentration (IC50) amounted to 0.15 nM.

Compound `CC(C)N(OCCN1CCOCC1)S(=O)(=O)CCCCCCNC(=O)NCc1cccnc1` [Compound 1022, N-Isopropyl-N-(2-morpholinoethoxy)-6-(3-(pyridin-3-ylmethyl)ureido)hexane-1-sulfonamide] yielded an IC50 of 2.23 nM.

In turn, `O=C(CCCCCCNC(=S)NCc1cccnc1)N(OCCN1CCOCC1)C1CCCCC1` [Compound 1015, N-cyclohexyl-N-(2-morpholinoethoxy)-7-(3-(pyridin-3-ylmethyl)thioureido)heptanamide] gave an IC50 of 0.89 nM.

In the case of `O=S(=O)(CCCCCCNC(=S)Nc1ccncc1)N(OCCN1CCOCC1)C1CCCC1` [Compound 1082], half-maximal inhibition (IC50) required 0.053 nM.

On to `O=C(NCCCCCCS(=O)(=O)NOCC1CCCCC1)Nc1ccncc1` [Compound 1001, N-(cyclohexylmethoxy)-6-(3-pyridin-4-ylureido)hexane-1-sulfonamide], for which the half-maximal inhibitory concentration (IC50) was 13.5 nM.

As to `O=S(=O)(CCCCCCNC(=S)Nc1ccncc1)N(CCCN1CCOCC1)C1CCCC1` [Compound 1064, N-Cyclopentyl-N-(3-morpholinopropyl)-6-(3-pyridin-4-ylthioureido)hexane-1-sulfonamide], half-maximal inhibition (IC50) required 0.55 nM.

With `O=C(NCCCCCCS(=O)(=O)N(CCF)OCC1CCCCC1)Nc1ccncc1` [Compound 1088, N-(cyclohexylmethoxy)-N-(2-fluoroethyl)-6-(3-pyridin-4-ylureido)hexane-1-sulfonamide], the half-maximal inhibitory concentration (IC50) was determined as 0.13 nM.

As to `O=S(=O)(CCCCCNC(=S)Nc1ccncc1)N(OCCN1CCOCC1)C1CCCC1` [Compound 1083, N-Cyclopentyl-N-(2-morpholinoethoxy)-5-(3-(pyridin-4-ylthioureido)pentane-1-sulfonamide oxalate], half-maximal inhibition (IC50) was put at 3.92 nM.

In turn, `O=C(NCCCCCCS(=O)(=O)N(OCCN1CCOCC1)C1CCCCC1)NCc1cccnc1` [Compound 1075, N-Cyclohexyl-N-(2-morpholinoethoxy)-6-(3-(pyridin-3-ylmethyl)ureido)hexane-1-sulfonamide oxalate] showed an IC50 of 1.64 nM.

`O=C(NCCCCCCC(=O)N(OCCN1CCOCC1)C1CCCCC1)NCCc1cccnc1` [Compound 1020] yielded a half-maximal inhibitory concentration (IC50) of 1.34 nM.

`O=C(NCCCCCCC(=O)N(OCCN1CCOCC1)C1CCCCC1)Nc1ccncc1` [Compound 1002, N-Cyclohexyl-N-(2-morpholinoethoxy)-7-(3-pyridin-4-ylureido)heptanamide]: it took 1.49 nM to reach half-maximal inhibition (IC50).

`O=C(NCCCCCCS(=O)(=O)N(CCN1CCOCC1)OCC1CCCCC1)NCCc1cccnc1` [Compound 1032, N-(cyclohexylmethoxy)-N-(2-morpholinoethyl)-6-(3-(2-(pyridin-3-yl)ethyl)ureido)hexane-1-sulfonamide] returned an IC50 of 14.1 nM.

`COCCOCCOCCN(OCC1CCCCC1)S(=O)(=O)CCCCCCNC(=O)NCc1cccnc1` [Compound 1013, N-(cyclohexylmethoxy)-N-(2-(2-(2-methoxyethoxy)ethoxy)ethyl)-6-(3-(pyridin-3-ylmethyl)ureido)hexane-1-sulfonamide]: the IC50 was 0.11 nM.

In turn, `CCOP(=O)(CCCCCCNC(=O)NCc1cccnc1)NC1CCCCC1` (centres unmarked) [Compound 1067, Ethyl N-cyclohexyl-P-(6-(3-pyridin-3-ylmethyl)ureido)phosphonamidate] displayed an IC50 of 0.79 nM.

Consider `O=C(NCCCCCCS(=O)(=O)N(CCF)OCC1CCCCC1)NCc1cccnc1` [Compound 1089, N-(cyclohexylmethoxy)-N-(2-fluoroethyl)-6-(3-(pyridin-3-ylmethyl)ureido)hexane-1-sulfonamide], for which the half-maximal inhibitory concentration (IC50) came to 2.04 nM.

As to `O=C(NCCCCCS(=O)(=O)N(CCCN1CCOCC1)C1CCCC1)NCc1cccnc1` [Compound 1069, N-cyclopentyl-N-(3-morpholinopropyl)-5-(3-(pyridin-3-ylmethyl)ureido)pentane-1-sulfonamide], the half-inhibitory concentration (IC50) stood at 3.04 nM.

In turn, `O=C(NCCCCCCS(=O)(=O)N1CCCCO1)NCc1cccnc1` [Compound 1018, hydrochloride] registered a half-inhibitory concentration (IC50) of 14 nM.

As for `CCOP(=O)(CCCCCCNC(=O)NCc1cccnc1)N1CCCCO1` (centres unmarked) [Compound 1072], half-maximal inhibition (IC50) was put at 2.4 nM.

For the compound `O=C(NCCCCCCC(=O)N(OCCN1CCOCC1)C1CCCCC1)NCc1cccnc1` [Compound 1009, N-cyclohexyl-N-(2-morpholinoethoxy)-7-(3-(pyridin-3-ylmethyl)ureido)heptanamide], 0.33 nM corresponded to half-maximal inhibition (IC50).

`CC(C)N(CCCN1CCOCC1)S(=O)(=O)CCCCCCNC(=O)Nc1ccncc1` [Compound 1049, N-Isopropyl-N-(3-morpholinopropyl)-6-(3-pyridin-4-ylureido)hexane-1-sulfonamide] returned a half-maximal inhibitory concentration (IC50) of 0.6 nM.

In turn, `O=S(=O)(CCCCCCNC(=S)Nc1ccncc1)N(CCCN1CCOCC1)C1CCCCC1` [Compound 1081, N-Cyclohexyl-N-(3-morpholinopropyl)-6-(3-(pyridin-4-ylthioureido)hexane-1-sulfonamide oxalate] gave a 50% inhibitory concentration (IC50) of 0.83 nM.

Regarding `O=C(NCCCCCCS(=O)(=O)N(CCN1CCOCC1)OCC1CCCCC1)NCc1cccnc1` [Compound 1031, N-(cyclohexylmethoxy)-N-(2-morpholinoethyl)-6-(3-(pyridin-3-ylmethyl)ureido)hexane-1-sulfonamide], half-maximal inhibition (IC50) required 0.13 nM.

`O=C(NCCCCCCC(=O)N(OCCN1CCOCC1)C1CCCCC1)Nc1cccnc1` [Compound 1065, N-Cyclohexyl-N-(2-morpholinoethoxy)-7-(3-pyridin-3-ylureido)heptanamide]: half-maximal inhibition (IC50) was put at 0.22 nM.

Consider `O=C(NCCCCCCS(=O)(=O)N(CCN1CCOCC1)OCc1ccccc1)NCc1cccnc1` [Compound 1078, N-(Benzyloxy)-N-(2-morpholinoethyl)-6-(3-(pyridin-3-ylmethyl)ureido)hexane-1-sulfonamide], for which it took 0.46 nM to reach half-maximal inhibition (IC50).

The IC50 is the concentration that inhibits the measured activity by half.
